Assay [1] relates to normal human fibroblast, IMR90. The experiment in a line: Calcein AM viability assay, IMR90. The settings on record: IMR-90, Calcein AM, 72 h. It is filed as cell-based. As for the experimental part: The potency of the subject kinase inhibitors, as measured by loss of cellular viability, was determined with the Calcein AM assay (Molecular Probes). Calcein AM is a substrate of intracellular esterases, which is cleaved only in viable cells to generate a fluorescent product that can be quantified with a fluorescent plate reader. The fluorescent signal is proportional to the number of viable cells, and thus loss of signal in response to the exposure of cells to the subject kinase inhibitors correlates with a loss of viability. This assay not only distinguishes cell cycle arrest, in which cells may still by viable, from loss of viability, and is thus well suited for the evaluation of the subject kinase inhibitors. A compound that is a potent cytotoxic agent may cause significant loss of cell viability in such an assay.
Cellular IC50's were determined in the human colorectal carcinoma cell line, HCT-116, and the normal human fibroblast, IMR90. Protein adjusted IC50's were also determined in HCT-116. Results of such viability assays are presented in Table 2 (HCT-116 (viability/protein adjusted) and IMR-90). IC50's (μM, non-protein adjusted) for the viability assay against HCT-116 cells are shown for further compounds of the invention in Table 4.
HCT-116 or IMR90 cells were recovered from sub-confluent plates by trypsinization and 1,000 or 4,000 cells, respectively, were plated in 24-well dishes and incubated overnight at 37° C., 5% CO2. HCT-116 cells were cultured in RPMI-1640, 10% FCS, and IMR90 cells were cultured in Minimum Essential Medium-alpha, 10% FCS. After overnight incubation to allow adherence, the media was aspirated from each well and replaced with media containing a test compound at a concentration from 0 to 250 nM, spanning a total of 7 doses. The plates were returned to the incubator and cultured for an additional 72 hours (3 days). […] After 72-hours incubation with the test compound, the cells were washed twice with 1×PBS, taking special care to remove all residual buffer.
A 5 μM Calcein AM solution was prepared by dissolving a 50 μg aliquot of Calcein (Molecular Probes catalog #C3100) in 50 μl DMSO. After the Calcein had completely dissolved (10 minutes at room temperature), it was diluted into 10 ml PBS. Calcein/PBS (0.5 ml) was added to each well. The plates were incubated for 75 minutes at 37° C. (protected from light) and the fluorescent signal was read on a fluorescent plate reader (excitation 485/20 and emission 530/25).

Assay [2] deals with HCT-116 cells. The experiment in a line: Calcein AM viability assay, HCT-116. The settings on record: Homo sapiens. It is filed as cell-based. The method in brief: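 Cells (HCT-116 1,000, IMR90 4,000 per well) adhered overnight, then received 7 doses from 0 to 250 nM for 72 h at 37 °C. Viability read as calcein fluorescence after 75 min with Calcein AM; IC50 values, with protein-adjusted values also obtained in HCT-116.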

Assay [3] relates to NCI panel of 60 cell lines. The experiment in a line: cells. Particulars: Homo sapiens, 60 cell, 48 h, read-out: NCI panel MG-MID (Mean-Graph Mid-point, average IC50 over panel), 48 h, SRB; IC50 <10 nM counted as 10 nM. The text has this: (§1) The evaluation of compounds at the National Cancer Institute in their panel of 60 cell lines provides a wealth of information regarding efficacy in a wide range of tumor types and genetic backgrounds. Included within this panel are cell lines derived from leukemia, melanoma and cancers of the lung, colon, brain, ovary, breast, prostate and kidney. Use of this panel provides a measure of the efficacy of compounds in cells with alterations in many genes that are associated with neoplastic transformation including p53 and Her2/Neu as well as those involved in metabolism and those which confer multi-drug resistance. The data generated in these cell lines with the protocol described below can be used to evaluate the activity of compounds.
(§2) Cells were grown in RPMI-1640 10% FCS and plated in 96 well micro-titer plates at densities ranging from 5,000 to 40,000 cells/well. The plates were incubated for 24 hours at 37° C., 5% CO2 for 24 hours. Media containing twice the desired final concentration of the compound (5 doses spanning 4 logs) was prepared and 100 μl was added to each well containing 100 μl media plus cells to yield the desired final concentration. The plates were then incubated for an additional 48 hours.
(§3) The effect of the compound on cellular viability was determined with the Sulforhodamine B (SRB) assay, which measures total protein. Cells were fixed with cold TCA to a final concentration of 10% and incubated at 4° C. for 60 minutes. The supernatant was discarded and the plates were washed five times with water and air-dried. SRB solution at […] in 1% acetic acid was added to each well and the plates were incubated for 10 minutes at room temperature. The plates were washed five times with 1% acetic acid and air-dried. The bound stain was solubilized with 10 mM trizma base and the absorbance was read on a plate reader at […].

Assay [4] has as its system HCT-116 cells. The assay can be described thus: Clonogenic survival assay with HCT-116 cells. The settings on record: Homo sapiens. It is filed as cell-based. As for the experimental part:
This assay was used to determine the concentration of a compound that results in irreversible loss of viability after a specified period of exposure. Essentially, cells are exposed to compound for a period of […], and are then transferred to compound-free growth medium. After continued incubation in the compound-free medium for a number of days, the number of colonies recovered is counted as an estimate of the number of surviving cells.
Media (RPMI-1640, 10% FCS, pen/strep) was pre-warmed to 37° C. in a water bath. Cells were incubated and grown at 37° C., 5% CO2. Cells were recovered by trypsinization from sub-confluent plates and counted using a hemocytometer. 1×10^4 cells were plated in 25 mls of media in a 15 cm tissue culture dish. […] were set up for each test compound, and were incubated overnight at 37° C. The compound was diluted into media at 7 concentrations and the media on the cells was replaced with that containing the test compound. Two plates were set up for each concentration of the compound to be tested, as well as two control plates without compound. Plates were incubated as above for […], media was removed and replaced with fresh media, and the plates were incubated an additional 7 days and washed with PBS. Colonies were stained with crystal violet solution (0.4% crystal violet, 20% ethanol) for 5 minutes, washed twice with distilled water, and counted.

Assay [5] concerns adriamycin resistant cell line (ADR-res). The experiment in a line: NCI panel, adriamycin resistant cell line, SRB assay. It is filed as cell-based. The settings on record: Homo sapiens, 48 h.
Excerpt: as §1, §2, §3
(In general: The SRB assay estimates cell density from bound dye.)

Assay [6] addresses protein kinase C (mixed isozymes). The experiment in a line: Protein kinase C TCA precipitation assay. Format: biochemical, rat. Particulars: Table 3; read-out: PKC IC50. The protocol:
Enzymes: Cdc2/cyclin B was obtained from commercial sources. Cdk2/his-cyclin Eshort was expressed in Sf9 cells. Cdk2/cyclin A, cdk4/cyclin D1, and cdk6/cyclin D2 were expressed in Sf9 cells. Protein kinase A (catalytic subunit, from bovine heart) and protein kinase C (mixed isozymes from rat brain) were obtained from commercial sources.
Protein kinase C and protein kinase A were assayed using a TCA precipitation assay with Histone H1 as a substrate. For protein kinase A, the final assay contained 50 mM Tris, 10 mM MgCl2, 1 mM dithiothreitol, pH 7.5, 12 μM adenosine triphosphate, 10% (v/v) dimethylsulfoxide (from compounds), 20 μg Histone H1, 2 μCi [γ-^32P] adenosine triphosphate, 0.2 U protein kinase A in a 100 μL assay. A protein kinase C assay contained 50 mM Tris, 10 mM MgCl2, 1 mM dithiothreitol, 0.8 mM CaCl2, pH 7.5, 5 μM adenosine triphosphate, 10% (v/v) dimethylsulfoxide (from compounds), 20 μg Histone H1, 2 μCi [γ-^32P] adenosine triphosphate, 0.01 U protein kinase C in a 50 μL assay. The assays were started by the addition of enzyme, allowed to react for 10 min at 30° C., and stopped by adding 0.4 volumes of 237 mM disodium ethylenediamine tetraacetate, 105 mM adenosine triphosphate, pH 8.0. […] The filters were washed ten times with 25% (w/v) trichloroacetic acid, and the amount of incorporated [^32P]phosphate was determined by adding 100 μl Microscint and scintillation counting.

The next assay concerns the target CDKs. The assay can be described thus: Kinase panel, CDKs (average/range). Format: biochemical. Particulars: comparison drug; read-out: average IC50 for CDK1, CDK2, and CDK4.

Values joined by “and” are separate entries in the source; they are usually repeats but may differ in a detail not shown here. Equal entries are not always repeated.

Turning to `CC(C)N1CCN(CCOc2ccc(-c3[nH]nc4c3C(=O)c3c(NC(=O)NN5CCOCC5)cccc3-4)cc2)CC1` [E], the IC50 (commonly the concentration at which inhibition is half-maximal) in assay [1] was less than 100 nM; with HCT-116 cells [2] (HCT-116, 72 h, Calcein AM, 72 h, read-out: HCT-116 IC50 Viability), less than 100 nM; in the assay with HCT-116 cells [2] (HCT-116, plus 1 mg/ml alpha acidic glycoprotein and 45 mg/ml human serum albumin, read-out: HCT-116 IC50 Protein adjusted) it was less than 1000 nM; in assay [3] it was less than 100 nM; with HCT-116 cells [4] (24 h exposure, read-out: HCT-116 IC50 Clonogenic 24 h), less than 100 nM; in the assay on HCT-116 cells [4] (72 h exposure, read-out: HCT-116 IC50 Clonogenic 72 h) it was less than 100 nM. Further, the IC50 in assay [5] is less than 1000 nM; in assay [6], less than 10000 nM.

Turning to `CN1CC[C@H](c2c(O)cc(O)c3c(=O)cc(-c4ccccc4Cl)oc23)[C@H](O)C1` [Flavopiridol, reference compound], at CDKs, the IC50 was ~650 nM and 650 nM.

The values are drawn from US20080146555A1, “Uses of Kinase Inhibitors and Compositions Thereof” (GPC Biotech, Inc, priority 2004, published 2008).
